Experiments:
[1] = system: Hepatitis C virus; assay: Antiviral activity against HCV genotype 1b Con1 infected in human HuH7.5 cells assessed as inhibition of viral replication after 4 days by luciferase reporter gene assay; format: functional, organism-based, Hepacivirus hominis; conditions: isolate Con1, Huh7.5, 96 h
[2] = molecular target: Hepatitis C virus serine protease, NS3/NS4A (Hepatitis C virus, UniProt A3EZI9+D2K2A8)
Description: Inhibition of recombinant full length HCV genotype 1a NS3/4A protease (1027 to 1711 residues) expressed in Escherichia coli strain BL21 (DE3) using RET S1 as substrate incubated for 1 min followed by substrate addition measured after 15 mins by FRET assay

[3] = AUC in Sprague-Dawley rat at 15 mg/kg, po administered via gavage or 5 mg/kg, iv administered as 10 mins infusion by LC/MS/MS analysis; format: ADME, organism-based; conditions: in vivo
[4] = Drug uptake in Sprague-Dawley rat liver at 15 mg/kg, po administered via gavage by LC/MS/MS analysis; format: ADME, organism-based; conditions: in vivo, read-out: Drug uptake
[5] = Half life in human liver microsomes by LC/MS/MS analysis; format: ADME, microsome
[6] = Oral bioavailability in Sprague-Dawley rat at 15 mg/kg, administered via gavage by LC/MS/MS analysis; format: ADME, organism-based; conditions: in vivo
[7] = Clearance in Sprague-Dawley rat at 15 mg/kg, po administered via gavage or 5 mg/kg, iv administered as 10 mins infusion by LC/MS/MS analysis; format: ADME, organism-based; conditions: in vivo
[8] = Elimination half life in Sprague-Dawley rat at 15 mg/kg, po administered via gavage or 5 mg/kg, iv administered as 10 mins infusion by LC/MS/MS analysis; format: ADME, organism-based; conditions: in vivo, read-out: beta t1/2 (converted)
[9] = Permeability from apical to basolateral side in human Caco2 cells; format: ADME, cell-based; conditions: Caco-2, read-out: permeability
[10] = Permeability from basolateral to apical side in human Caco2 cells; format: ADME, cell-based; conditions: Caco-2, read-out: permeability

Chain of Hepatitis C virus serine protease, NS3/NS4A (D2K2A8 whole entry, the tested form may be a part): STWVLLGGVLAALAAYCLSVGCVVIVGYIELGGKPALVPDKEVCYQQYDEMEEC
Chain of Hepatitis C virus serine protease, NS3/NS4A (A3EZI9 whole entry, the tested form may be a part): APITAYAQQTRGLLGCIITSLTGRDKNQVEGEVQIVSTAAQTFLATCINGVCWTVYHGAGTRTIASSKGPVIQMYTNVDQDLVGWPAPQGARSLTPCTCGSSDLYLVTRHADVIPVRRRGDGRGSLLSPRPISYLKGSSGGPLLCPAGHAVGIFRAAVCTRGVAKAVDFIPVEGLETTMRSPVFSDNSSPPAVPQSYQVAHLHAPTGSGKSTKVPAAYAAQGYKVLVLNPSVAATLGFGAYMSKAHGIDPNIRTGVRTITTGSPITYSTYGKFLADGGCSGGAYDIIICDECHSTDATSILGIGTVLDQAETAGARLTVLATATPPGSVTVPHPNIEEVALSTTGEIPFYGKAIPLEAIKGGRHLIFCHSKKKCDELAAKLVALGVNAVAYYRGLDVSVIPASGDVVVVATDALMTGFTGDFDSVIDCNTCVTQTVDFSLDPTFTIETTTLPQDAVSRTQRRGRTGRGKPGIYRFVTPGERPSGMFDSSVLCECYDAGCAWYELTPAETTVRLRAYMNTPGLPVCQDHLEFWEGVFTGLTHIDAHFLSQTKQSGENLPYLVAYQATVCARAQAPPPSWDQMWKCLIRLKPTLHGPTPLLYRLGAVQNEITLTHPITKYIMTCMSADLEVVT

Row | Structure (SMILES) | EC50 [1] [nM] | IC50 [2] [nM] | half-life [5] [min] | also measured
1 | COc1cnc(O[C@@H]2C[C@@H](C(=O)NC(C)(C)C(=O)NS(=O)(=O)C3CC3)N(C(=O)[C@@H](NC(=O)OC(C)(C)C)C(C)(C)C)C2)c2cc(Cl)ccc12 | > 1000 | 2190 |  | 
2 | C=C[C@@H]1C[C@]1(NC(=O)[C@@H]1C[C@@H](Oc2ncc(OC)c3ccc(Cl)cc23)CN1C(=O)[C@@H](NC(=O)OC(C)(C)C)C(C)(C)C)C(=O)NS(=O)(=O)C1CC1 |  |  |  | AUC at 10 min [3]: 1 µM·h
3 | C=CC[C@](C)(NC(=O)[C@@H]1C[C@@H](Oc2ncc(OC)c3ccc(Cl)cc23)CN1C(=O)[C@@H](NC(=O)OC(C)(C)C)C(C)(C)C)C(=O)NS(=O)(=O)C1CC1 | 23000 | 33000 | 53.5 | 
4 | COc1cnc(O[C@@H]2C[C@@H](C(=O)N[C@H](CC(F)F)C(=O)NS(=O)(=O)C3CC3)N(C(=O)[C@@H](NC(=O)OC(C)(C)C)C(C)(C)C)C2)c2cc(Cl)ccc12 | > 1000 | 2480 |  | 
5 | COc1ccc2c(O[C@@H]3C[C@@H](C(=O)NC(CC(F)F)C(=O)NS(=O)(=O)C4CC4)N(C(=O)[C@@H](NC(=O)OC(C)(C)C)C(C)(C)C)C3)cc(-c3ccccc3)nc2c1 (stereo partly drawn) |  | > 1000 |  | 
6 | CC[C@@H](NC(=O)[C@@H]1C[C@@H](Oc2ncc(OC)c3ccc(Cl)cc23)CN1C(=O)[C@@H](NC(=O)OC(C)(C)C)C(C)(C)C)C(=O)NS(=O)(=O)C1CC1 | > 1000 | 7980 |  | 
7 | CC[C@H](NC(=O)[C@@H]1C[C@@H](Oc2ncc(OC)c3ccc(Cl)cc23)CN1C(=O)[C@@H](NC(=O)OC(C)(C)C)C(C)(C)C)C(=O)NS(=O)(=O)C1CC1 | > 1000 | 3080 |  | 
8 | COc1cnc(O[C@@H]2C[C@@H](C(=O)NC3(C(=O)NS(=O)(=O)C4CC4)CCC3)N(C(=O)[C@@H](NC(=O)OC(C)(C)C)C(C)(C)C)C2)c2cc(Cl)ccc12 | 1280 | 261 |  | 

The next lines start with results.

Row | EC50 [1] [nM] | IC50 [2] [nM] | half-life [5] [min] | Structure (SMILES) | also measured
9 | 16 | 5 |  | CC[C@@H]1C[C@]1(NC(=O)[C@@H]1C[C@@H](Oc2ncc(OC)c3ccc(Cl)cc23)CN1C(=O)[C@@H](NC(=O)OC(C)(C)C)C(C)(C)C)C(=O)NS(=O)(=O)C1CC1 | AUC at 10 min [3]: 6.89 µM·h; concentration [4]: 40.3 µM
10 | 336 | 40 | 120 | COc1cnc(O[C@@H]2C[C@@H](C(=O)NC3(C(=O)NS(=O)(=O)C4CC4)CC3)N(C(=O)[C@@H](NC(=O)OC(C)(C)C)C(C)(C)C)C2)c2cc(Cl)ccc12 | 
11 | 31 | 14 | 200 | COc1cnc(O[C@@H]2C[C@@H](C(=O)N[C@]3(C(=O)NS(=O)(=O)C4CC4)C[C@H]3CC(F)F)N(C(=O)[C@@H](NC(=O)OC(C)(C)C)C(C)(C)C)C2)c2cc(Cl)ccc12 | 
12 | 125 | 17 | 47 | COc1cnc(O[C@@H]2C[C@@H](C(=O)N[C@]3(C(=O)NS(=O)(=O)C4CC4)C[C@H]3C(F)(F)F)N(C(=O)[C@@H](NC(=O)OC(C)(C)C)C(C)(C)C)C2)c2cc(Cl)ccc12 | 
13 | 7.6 to 8 |  | 120 | COc1cnc(O[C@@H]2C[C@@H](C(=O)N[C@]3(C(=O)NS(=O)(=O)C4CC4)C[C@H]3C(F)F)N(C(=O)[C@@H](NC(=O)OC(C)(C)C)C(C)(C)C)C2)c2cc(Cl)ccc12 | bioavailability [6]: 0.9%; clearance [7]: 58 mL/min/kg; AUC at 10 min [3]: 0.05 µM·h; half-life [8]: 156 min; concentration [4]: 0.27 µM; Papp A→B [9]: < 1.5 ×10⁻⁶ cm/s; Papp B→A [10]: 4.7 ×10⁻⁶ cm/s
14 | 509 | 976 |  | COc1cnc(O[C@@H]2C[C@@H](C(=O)N[C@@H](CC(F)F)C(=O)NS(=O)(=O)C3CC3)N(C(=O)[C@@H](NC(=O)OC(C)(C)C)C(C)(C)C)C2)c2cc(Cl)ccc12 | 
15 | 18.3 | 6 |  | COc1cnc(O[C@@H]2C[C@@H](C(=O)N[C@]3(C(=O)NS(=O)(=O)C4CC4)C[C@H]3C3CC3)N(C(=O)[C@@H](NC(=O)OC(C)(C)C)C(C)(C)C)C2)c2cc(Cl)ccc12 | bioavailability [6]: 34 to 44.2%; clearance [7]: 5.2 mL/min/kg; AUC at 10 min [3]: 19.6 µM·h; half-life [8]: 360 to 600 min
16 | 64 | 13 | 96 | COc1cnc(O[C@@H]2C[C@@H](C(=O)N[C@]3(C(=O)NS(=O)(=O)C4CC4)C[C@H]3C)N(C(=O)[C@@H](NC(=O)OC(C)(C)C)C(C)(C)C)C2)c2cc(Cl)ccc12 | 
